How the values were obtained:
4T1 tumors [1] = assay: Tumor homing / tumor extravasation of FAM-labeled peptides and conjugates; format: in vivo, mouse; conditions: FAM-labeled peptide i.v., three hours after the injection
4T1 tumors [2] = assay: Evans Blue assay; format: in vivo, mouse; conditions: mice
[3] = mouse, in vivo, iv

plasma half-life [3]: 8 min
Substance: CRGDK/RGPD/EC (disulfide) [iRGD]
peptide signal in the tumors (4T1 tumors [1]): had weakened
duration of the bystander effect after a bolus injection (4T1 tumors [2]): less than one hour

— article PMC3930474 (Journal of controlled release : official journal of the …, 2013)
